Assay results: ChEMBL document CHEMBL1201862, “PubChem BioAssay data set” (2004)
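96-well plates; 48 h exposure; 5 concentrations. Endpoints by linear interpolation between flanking doses. Not reached: highest tested concentration assigned. At the GI50, growth is halved.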 Active and inactive are the calls of the source. Rule as the data show it: active = GI50 up to about 1.1 µM and inactive = higher.

Experiments:
Experiment in all cases: inhibition of tumour cell growth, NCI panel, 48 h
SF-268 = test system: SF-268
K562 = test system: K562
SK-MEL-2 = test system: SK-MEL-2
EKVX = test system: EKVX
Malme-3M = test system: Malme-3M
HOP-62 = test system: HOP-62
HCT-116 = test system: HCT-116
COLO 205 = test system: COLO 205
NCI-H522 = test system: NCI-H522
NCI-H226 = test system: NCI-H226
SNB-19 = test system: SNB-19
OVCAR-8 = test system: OVCAR-8
OVCAR-4 = test system: OVCAR-4
LOX IMVI = test system: LOX IMVI
CCRF-CEM = test system: CCRF-CEM
HCC 2998 = test system: HCC 2998

Measured: GI50

CCOC(=O)C(C)Sc1nnc(COc2ccc(Cl)cc2)n1-c1ccccc1 (stereo unspecified)
inactive: SF-268 18.3 µM | K562 13.6 µM | SK-MEL-2 13.4 µM | EKVX 24.6 µM | Malme-3M 25.8 µM | HOP-62 21.4 µM | HCT-116 21.4 µM | COLO 205 18.4 µM | NCI-H522 1.82 µM | NCI-H226 21.5 µM | SNB-19 19.3 µM | OVCAR-8 23.4 µM | OVCAR-4 20.6 µM | LOX IMVI 14.3 µM | CCRF-CEM 14.5 µM | HCC 2998 22.5 µM

N#C/C(=C1\OC(=O)C(c2ccc(Br)cc2)=C1O)c1ccc(Br)cc1
inactive: SF-268 14.7 µM | K562 19.3 µM | EKVX 17.5 µM | Malme-3M 16.9 µM | HOP-62 19.2 µM | HCT-116 17.3 µM | COLO 205 17.9 µM | NCI-H522 12.4 µM | NCI-H226 18.1 µM | SNB-19 14.4 µM | OVCAR-8 12.1 µM | OVCAR-4 16.5 µM | LOX IMVI 15 µM | CCRF-CEM 11.1 µM | HCC 2998 15.5 µM

O=Cc1ccc2c(c1I)OCO2
inactive: K562 > 100 µM | SK-MEL-2 > 100 µM | EKVX > 100 µM | Malme-3M > 100 µM | HOP-62 > 100 µM | HCT-116 > 100 µM | COLO 205 > 100 µM | NCI-H522 > 100 µM | NCI-H226 > 100 µM | SNB-19 > 100 µM | OVCAR-8 > 100 µM | OVCAR-4 > 100 µM | LOX IMVI > 100 µM | CCRF-CEM > 100 µM | HCC 2998 > 100 µM

COc1ccc(CN2CCC/C=C/CC(Cl)(Cl)C2=O)cc1
inactive: SF-268 26.6 µM | K562 35.6 µM | SK-MEL-2 19.8 µM | Malme-3M 23.8 µM | HOP-62 50.9 µM | HCT-116 31.3 µM | COLO 205 20.4 µM | NCI-H522 19.8 µM | SNB-19 25.2 µM | OVCAR-8 40 µM | OVCAR-4 23 µM | LOX IMVI 39.3 µM | CCRF-CEM 35.5 µM | HCC 2998 35.3 µM

COc1cc2c(c(OC)c1OC)CCNC2C1=C(O)COC1=O (stereo unspecified)
inactive: SF-268 > 100 µM | K562 > 100 µM | SK-MEL-2 61.9 µM | Malme-3M > 100 µM | HOP-62 > 100 µM | HCT-116 > 100 µM | COLO 205 > 100 µM | NCI-H522 > 100 µM | NCI-H226 28.9 µM | SNB-19 > 100 µM | OVCAR-8 > 100 µM | OVCAR-4 > 100 µM | LOX IMVI > 100 µM | CCRF-CEM > 100 µM | HCC 2998 > 100 µM

Nc1c(-c2cn(Cc3ccccc3)c3ccccc23)[n+]([O-])c2ccccc2[n+]1[O-]
inactive: SF-268 21.5 µM | K562 24.5 µM | SK-MEL-2 23.1 µM | EKVX 32.6 µM | Malme-3M 29.7 µM | COLO 205 35.3 µM | NCI-H522 13.2 µM | NCI-H226 6.35 µM | SNB-19 36.6 µM | OVCAR-8 45.4 µM | OVCAR-4 43.6 µM | LOX IMVI 24.2 µM | CCRF-CEM 27.1 µM | HCC 2998 35.8 µM

CCOC(=O)Cn1c(=O)[nH]c(=O)c2[nH]cnc21
inactive: SF-268 > 100 µM | K562 > 100 µM | SK-MEL-2 > 100 µM | EKVX > 100 µM | Malme-3M > 100 µM | HOP-62 > 100 µM | HCT-116 > 100 µM | COLO 205 > 100 µM | NCI-H522 > 100 µM | SNB-19 > 100 µM | OVCAR-8 > 100 µM | OVCAR-4 > 100 µM | LOX IMVI > 100 µM | CCRF-CEM > 100 µM | HCC 2998 > 100 µM

C=CSCCC(N)C(=O)O (stereo unspecified)
inactive: SF-268 > 100 µM | K562 > 100 µM | EKVX > 100 µM | Malme-3M > 100 µM | HOP-62 > 100 µM | HCT-116 > 100 µM | COLO 205 > 100 µM | NCI-H522 > 100 µM | NCI-H226 > 100 µM | SNB-19 > 100 µM | OVCAR-8 > 100 µM | OVCAR-4 > 100 µM | LOX IMVI > 100 µM | CCRF-CEM > 100 µM | HCC 2998 > 100 µM

C/C(=C\CC[C@]1(C)OC(C)(C)OC1CC/C(C)=C/CO[Si](c1ccccc1)(c1ccccc1)C(C)(C)C)CC/C=C/CO[Si](C)(C)C(C)(C)C (stereo partly specified)
inactive: SF-268 > 100 µM | K562 > 100 µM | SK-MEL-2 > 100 µM | EKVX > 100 µM | Malme-3M > 100 µM | HOP-62 > 100 µM | HCT-116 > 100 µM | NCI-H522 > 100 µM | NCI-H226 > 100 µM | SNB-19 > 100 µM | OVCAR-8 > 100 µM | OVCAR-4 > 100 µM | LOX IMVI > 100 µM | CCRF-CEM > 100 µM | HCC 2998 > 100 µM

Cc1cc(Cl)ccc1NC(=O)C(=O)Cc1nc2ccccc2o1
inactive: SF-268 > 100 µM | K562 > 100 µM | SK-MEL-2 > 100 µM | EKVX > 100 µM | Malme-3M > 100 µM | HOP-62 > 100 µM | COLO 205 > 100 µM | NCI-H522 > 100 µM | SNB-19 > 100 µM | OVCAR-8 > 100 µM | OVCAR-4 > 100 µM | LOX IMVI > 100 µM | CCRF-CEM > 100 µM | HCC 2998 > 100 µM

COC(=O)CC(=O)OC1C[C@@H]2CCC3C(C)(C)CCC[C@]3(C)C23CC[C@@]1(C)C3 (stereo partly specified)
inactive: SF-268 18.5 µM | K562 > 100 µM | Malme-3M 17.9 µM | HOP-62 19.3 µM | HCT-116 17.3 µM | COLO 205 18.6 µM | NCI-H522 12.9 µM | NCI-H226 28.6 µM | SNB-19 17.4 µM | OVCAR-8 19.5 µM | OVCAR-4 16.9 µM | LOX IMVI 17.8 µM | CCRF-CEM > 100 µM | HCC 2998 19.8 µM

c1ccc(P(=C2c3ccccc3-c3ccccc32)(c2ccccc2)c2ccccc2)cc1
inactive: SF-268 7.19 µM | K562 2.1 µM | SK-MEL-2 5.35 µM | EKVX 5.58 µM | Malme-3M 3.08 µM | HOP-62 1.69 µM | COLO 205 3.42 µM | NCI-H522 1.6 µM | SNB-19 4.67 µM | OVCAR-8 3.04 µM | OVCAR-4 6.1 µM | LOX IMVI 2.83 µM | CCRF-CEM 2.51 µM | HCC 2998 3.63 µM

C=CCN(C)CN(C)c1nc(N(C)C)nc(N(C)C)n1
inactive: SF-268 > 100 µM | K562 > 100 µM | SK-MEL-2 > 100 µM | EKVX > 100 µM | Malme-3M > 100 µM | HOP-62 > 100 µM | HCT-116 60.7 µM | COLO 205 86.3 µM | NCI-H522 11.2 µM | SNB-19 > 100 µM | OVCAR-8 > 100 µM | OVCAR-4 79.8 µM | LOX IMVI 54 µM | CCRF-CEM 33 µM | HCC 2998 53.2 µM
